Measured values as given in patent US20220144838A1, “Compounds as Inhibitors of Macrophage Migration Inhibitory Factor” (NANJING IMMUNOPHAGE BIOTECH CO., LTD., priority 2019, published 2022).

How the values were obtained:
BV2 cells = assay: BV2 cell proliferation assay (CCK-8); type: cell-based; conditions: Mus musculus, BV-2, 48 h treatment, FIGS. 6-8, read-out: pIC50 BV2 cell proliferation (converted)
Description: The assay measures the ability of a compound to inhibit cell proliferation using Cell Counting Kit-8 (CCK-8), which allows sensitive colorimetric assays for the determination of cell viability in cell proliferation and cytotoxicity assays. The highly water-soluble tetrazolium salt, WST-8, is reduced by dehydrogenase activities in cells to give a yellow-color formazan dye, which is soluble in the tissue culture media. The amount of the formazan dye, generated by the activities of dehydrogenases in cells, is directly proportional to the number of living cells.
The assay was performed based on the instruction of the manufacture (Dojindo Molecular Technologies Inc., Rockville, Md., USA). To start the assay, BV2 cells were seeded at a density of […] into 96-well plates and treated with test compounds, which were used at a top final assay concentration of 33.3 μM, diluted in assay medium with 1:3 dilutions to produce 10 point concentration responses, for 48 h. After incubation, the CCK-8 solution (10 μl) was added to each well of the plate and the plates were incubated in incubator at 37° C. for 3 h. Absorbance was recorded three times independently using a microplate reader (Bio-Rad Laboratories, Richmond, Calif., USA) at 450 nm.
(§1) Selected examples were tested in the BV2 cell proliferation assay. The data mentioned below represents a mean pIC50 value of multiple test results. It is understood that the data illustrated below may have reasonable variation depending on the specific conditions and procedures used by the person conducting the testing.

MIF = molecular target: T1, MIF (Homo sapiens, UniProt P14174); assay: MIF tautomerase assay using pHPP as substrate; type: biochemical; conditions: inhibition of the MIF enzyme in vitro; mean of multiple test results; read-out: Tautomerase Inhibition pIC50 (converted)
T1 sequence (P14174 2-115 limits assumed): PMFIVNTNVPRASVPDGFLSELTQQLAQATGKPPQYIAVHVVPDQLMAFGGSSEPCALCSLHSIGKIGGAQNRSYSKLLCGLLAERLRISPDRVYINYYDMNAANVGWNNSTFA
Procedure, shortened: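 Cell-free keto-to-enol tautomerization of pHPP, enol product detected spectrophotometrically as borate complex. Final 3 nM MIF and 1.5 mM ketonic pHPP in DPBS/boric acid buffer with 0.025% BSA and 300 μM CHAPS, pH 6.0, room temperature; initial rates from absorbance slopes give mean pIC50.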

[1] = molecular target: T2, biotinylated human MIF / MIF receptor ectodomain (sCD74) (Homo sapiens, UniProt P14174); assay: MIF-CD74 binding assay; conditions: FIGS. 9-12; read-out: pIC50 MIF-CD74 binding (converted)
T2 construct: made in house
T2 sequence (P14174 2-115 limits assumed): T1 sequence (P14174 2-115 limits assumed)
Procedure: The assay measures the ability of a compound to inhibit the binding of MIF with its receptor CD74 in vitro. 96-well plates were coated with recombinant MIF receptor ectodomain (sCD74=CD7473-232), washed 4 times, and blocked with Superblock (Pierce Biotechnology) at 4° C. overnight. Test compounds, which were used at a top final assay concentration of 33.3 μM, diluted in assay medium with 1:3 dilutions to produce 10 point concentration responses, were pre-incubated with biotinylated human MIF (2 ng/μl) (Roche Applied Sciences) prepared recombinantly for 30 minutes at room temperature. The mixtures then were added to wells for overnight incubation at 4° C. The wells were washed 4 times and strepavidin-conjugated alkaline phosphatase (R&D Systems) was added for one hour incubation at room temperature. After additional washes, 60 μl/well of p-nitrophenyl phosphate (Sigma) substrate was added. Absorbance at 405 nm was plotted as percent A405 relative to wells containing biotinylated human MIF alone. Each plot represented at least three independently performed assays, and each data point depicts a SEM≤10%. Each test compound was analyzed over 10-12 concentrations, and over a ˜500-fold concentration range.
as §1, with “MIF-CD74 binding” for “BV2 cell proliferation”

4T1 cells = assay: 4T1 breast cancer syngeneic mouse model; type: in vivo, Balb/c mice; conditions: 4T1 model; IMG-321 20 mg/kg b.i.d. combined with gemcitabine 3 mg/kg once every 10 days
Procedure: Female Balb/c mice (5-6 weeks old) were purchased from Charles River Laboratories (Hollister, Calif.). Animals were housed and treated in accordance with Institutional Animal Care and Use Committee guidelines. For the generation of 4T1 breast cancer model, 1×10^5 4T1 cells were injected orthotopically into the mammary fat pad. For the generation of lung cancer model, 1×10^5 LLC cells were injected subcutaneously. For the generation of murine melanoma model, 1×10^5 B16-F10 cells were injected subcutaneously. Test compounds were administered by I.P. injection in a dose range of 10-100 mg/kg starting on study day 1 (7 days after tumor implantation). Control groups received vehicle (water) twice daily by I.P. injection. Tumor volume measured by digital caliper (length×width×width/2) and body weight were recorded three times per week. Animals were euthanized when tumors necrotized or volumes reached 2000 mm3.
One-way Anova, student's T test, and Mann-Whitney test performed by GraphPad5 PRISM software (GraphPad Software, Inco, San Diego, Calif., USA) were used according to different experimental conditions. P value<0.05 was considered statistically significant. Significance is indicated in the figures by asterisks *p<0.05, **p<0.01.
Female Balb/C mice (8 weeks old) were injected with 1×10^5 4T1 cells into the mammary fat pad. […] Tumor volume was measured by digital caliper (length×width×width/2). […]

Structure (SMILES)	IC50 (MIF)	IC50 [1]	IC50 (BV2 cells)	breast cancer growth (tumor volume), combination (4T1 cells)
Nc1nc(N2CCN(c3ccc(O)cc3)CC2)nc2c1ncn2-c1ccncc1 [Example 80, 4-(4-(6-amino-9-(pyridin-4-yl)-9H-purin-2-yl)piperazin-1-yl)phenol]	0.01 to 0.0977 µM		5.02 µM	
Nc1nc(N2CCN(c3ccc(O)cc3)CC2)nc2c1ncn2-c1cncnc1 [Example 81, 4-(4-(6-amino-9-(pyrimidin-5-yl)-9H-purin-2-yl)piperazin-1-yl)phenol]	1 to 9.77 µM		23.1 µM	
Oc1ccc(N2CCN(c3nc(NCC4CC4)c4ncn(-c5cccnc5)c4n3)CC2)cc1 [Example 95, 4-(4-(6-((cyclopropylmethyl)amino)-9-(pyridin-3-yl)-9H-purin-2-yl)piperazin-1-yl)phenol]	1 to 9.77 µM		6.92 µM	
Nc1ccn([C@@H]2O[C@H](CO)[C@@H](O)C2(F)F)c(=O)n1 [Gemcitabine, gemcitabine]				Synergistically Inhibited Breast Cancer Growth

Second part, led by results:

IC50 (MIF)	IC50 [1]	Structure (SMILES)	IC50 (BV2 cells)	breast cancer growth (tumor volume), combination (4T1 cells)
0.1 to 0.977 µM	2.61 µM	Nc1nc(N2CCN(c3ccc(O)cc3)CC2)nc2c1ncn2-c1cccnc1 [Example 115, 4-(4-(6-amino-9-(pyridin-3-yl)-9H-purin-2-yl)piperazin-1-yl)phenol]		
0.01 to 0.0977 µM	4.9 µM	O=C(O)CCn1cnc2c(-n3ncc4ccccc43)nc(N3CCN(c4ccc(O)cc4)CC3)nc21 [Example 148, 4-(2-(4-(4-hydroxyphenyl)piperazin-1-yl)-6-(1H-indazol-1-yl)-9H-purin-9-yl)propanoic acid]		
